Measurements taken from ChEMBL document CHEMBL1201862, “PubChem BioAssay data set” (2004).
Calls of active or inactive are those of the source.

Legend:
[1] = target: T1, Protein skinhead-1 (Caenorhabditis elegans, UniProt P34707); format: functional
T1 sequence (P34707 whole entry): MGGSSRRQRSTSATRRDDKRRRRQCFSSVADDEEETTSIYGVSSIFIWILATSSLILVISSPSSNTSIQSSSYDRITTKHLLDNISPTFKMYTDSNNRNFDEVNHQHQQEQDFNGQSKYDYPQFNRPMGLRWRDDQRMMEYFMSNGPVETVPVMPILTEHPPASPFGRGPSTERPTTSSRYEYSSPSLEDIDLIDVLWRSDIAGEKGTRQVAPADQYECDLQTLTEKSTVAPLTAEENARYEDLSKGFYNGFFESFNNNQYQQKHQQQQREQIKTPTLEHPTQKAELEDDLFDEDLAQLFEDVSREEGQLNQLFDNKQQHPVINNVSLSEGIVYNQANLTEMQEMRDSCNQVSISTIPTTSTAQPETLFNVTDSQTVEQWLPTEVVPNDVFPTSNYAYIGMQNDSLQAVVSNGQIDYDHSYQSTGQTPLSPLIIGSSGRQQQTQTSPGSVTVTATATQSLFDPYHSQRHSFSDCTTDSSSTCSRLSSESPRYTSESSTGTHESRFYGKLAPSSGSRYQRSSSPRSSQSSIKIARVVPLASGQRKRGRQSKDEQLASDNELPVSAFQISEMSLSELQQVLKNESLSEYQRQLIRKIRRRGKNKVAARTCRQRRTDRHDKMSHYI

[2] = target: T2, RNA-binding protein pos-1 (Caenorhabditis elegans, UniProt G5EF15); assay: inhibitors of POS-1/mex-3 RNA binding, dose response, biochemical, fluorescence polarization (AID 1964);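 note: purified POS-1 fused to maltose binding protein made in E. coli; potency of compounds blocking POS-1 binding to fluorescent RNA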
T2 sequence (G5EF15 whole entry): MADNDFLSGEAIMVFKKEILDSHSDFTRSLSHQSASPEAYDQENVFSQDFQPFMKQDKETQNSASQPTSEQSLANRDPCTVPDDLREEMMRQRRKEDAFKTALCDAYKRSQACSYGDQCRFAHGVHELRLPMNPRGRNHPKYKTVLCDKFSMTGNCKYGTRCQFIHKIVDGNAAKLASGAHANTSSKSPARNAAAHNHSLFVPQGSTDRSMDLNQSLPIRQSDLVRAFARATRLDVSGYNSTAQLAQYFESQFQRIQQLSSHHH

[3] = target: T3, Zinc finger protein mex-5 (Caenorhabditis elegans, UniProt Q9XUB2); assay: MEX-5/TCR-2 RNA interaction inhibitors, dose response, biochemical, C. elegans, fluorescence polarization (AID 1960)
T3 sequence (Q9XUB2 whole entry): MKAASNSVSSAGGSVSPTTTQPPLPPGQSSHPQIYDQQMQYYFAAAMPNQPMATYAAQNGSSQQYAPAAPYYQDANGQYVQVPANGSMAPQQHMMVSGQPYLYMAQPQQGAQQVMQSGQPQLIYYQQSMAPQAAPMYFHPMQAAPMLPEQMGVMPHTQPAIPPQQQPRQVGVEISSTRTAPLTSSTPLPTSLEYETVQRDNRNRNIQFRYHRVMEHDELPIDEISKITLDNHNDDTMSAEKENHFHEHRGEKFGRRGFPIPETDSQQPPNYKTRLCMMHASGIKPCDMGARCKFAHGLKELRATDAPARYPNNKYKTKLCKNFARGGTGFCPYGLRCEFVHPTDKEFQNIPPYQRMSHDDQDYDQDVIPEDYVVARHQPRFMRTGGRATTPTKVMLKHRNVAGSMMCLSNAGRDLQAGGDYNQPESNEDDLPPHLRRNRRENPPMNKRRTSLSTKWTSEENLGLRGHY

[4] = target: Cytochrome P450 2C19 (Homo sapiens, UniProt P33261); assay: Cytochrome panel assay with activity outcomes. Panel member name: p450-cyp2c19 Compounds with AC50 equal or less than 10 uM are considered active; format: functional; details: read-out: AC50
Cytochrome P450 2C19, sequence (P33261 whole entry): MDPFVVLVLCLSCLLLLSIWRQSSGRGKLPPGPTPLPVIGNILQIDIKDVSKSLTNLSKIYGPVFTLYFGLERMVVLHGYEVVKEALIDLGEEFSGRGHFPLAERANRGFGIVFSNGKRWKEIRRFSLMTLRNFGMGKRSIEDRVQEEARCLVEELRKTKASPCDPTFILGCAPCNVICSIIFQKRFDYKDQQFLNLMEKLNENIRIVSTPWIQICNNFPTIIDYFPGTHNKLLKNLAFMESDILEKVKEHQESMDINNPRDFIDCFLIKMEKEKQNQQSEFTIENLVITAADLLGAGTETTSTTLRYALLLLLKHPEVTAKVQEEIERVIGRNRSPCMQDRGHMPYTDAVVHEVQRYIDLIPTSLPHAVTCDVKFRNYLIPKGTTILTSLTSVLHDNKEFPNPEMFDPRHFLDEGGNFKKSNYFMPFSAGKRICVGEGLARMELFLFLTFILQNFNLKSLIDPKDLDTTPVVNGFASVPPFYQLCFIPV

[5] = target: Cytochrome P450 2C9 (Homo sapiens, UniProt P11712)
Cytochrome P450 2C9, sequence (P11712 whole entry): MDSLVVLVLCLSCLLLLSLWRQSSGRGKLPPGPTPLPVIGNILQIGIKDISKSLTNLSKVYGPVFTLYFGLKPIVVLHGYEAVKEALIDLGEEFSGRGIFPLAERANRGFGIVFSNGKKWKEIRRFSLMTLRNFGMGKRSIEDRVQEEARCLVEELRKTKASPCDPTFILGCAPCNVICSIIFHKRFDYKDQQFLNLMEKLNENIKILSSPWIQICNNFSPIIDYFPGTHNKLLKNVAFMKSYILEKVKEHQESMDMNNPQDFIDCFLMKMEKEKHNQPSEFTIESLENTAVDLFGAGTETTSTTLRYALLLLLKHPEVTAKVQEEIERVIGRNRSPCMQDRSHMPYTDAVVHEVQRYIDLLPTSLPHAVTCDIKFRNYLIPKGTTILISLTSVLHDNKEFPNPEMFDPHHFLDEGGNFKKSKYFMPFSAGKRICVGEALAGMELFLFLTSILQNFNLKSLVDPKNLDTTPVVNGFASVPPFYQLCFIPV

[6] = tested on: H9c2; assay: cells; format: functional, cell-based; details: Rattus norvegicus, H9c2, Myocardium;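 note: confirmatory concentration-response retest of ultra-high-throughput screening hits for modulation of myocardial damage; cell death induced by hydrogen peroxide oxidative stress; compound pretreatment for 60 min then peroxide exposure for 2 h; potency is for protecting the cells against peroxide damage rather than for killing them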
[7] = NIH-3T3 fibroblast cytotoxicity, dose response, cytotoxicity control, cell-based, fluorescence, Alamar Blue, secondary assay (AID 2327); format: functional;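 note: NIH-3T3 mouse fibroblasts cultured with fluconazole at 8 µg/mL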
[8] = C. albicans growth with fluconazole, confirmation, fluorescence, retest (AID 2467); format: functional, cell-based
[9] = HEp-2 cell cytotoxicity, dose response, cytotoxicity control for RSV inhibitor project, HTS (AID 2410); format: functional; details: human respiratory syncytial virus
[10] = Luminescence Cell-Based Dose Confirmation HTS to Identify Activators of 5'UTR Stem-Loop Driven Alpha-Synuclein mRNA Translation in H4 Neuroglioblastoma Cells. [Related pubchem assays: 1829 (Project Summary), 1814 (Primary HTS)]; format: functional
[11] = Luminescence Cell-Based Dose Response HTS to Identify Activators of Luciferase Translation or Activity in H4 […] Cells. [Related pubchem assays: 1829 (Project Summary), 1814 (Primary HTS)]; format: functional
[12] = microbe, parasite or virus in culture; format: functional; details: Mycobacterium tuberculosis
[13] = target: T4, Corticotropin-releasing factor receptor 2/Corticotropin-releasing factor-binding protein (Homo sapiens, UniProt P24387+Q13324); assay: activators of CRF receptor 2 with binding protein – uHTS hits, confirmation (AID 602473); format: functional; details: read-out: EC50_Mean
T4 sequence (Q13324 whole entry): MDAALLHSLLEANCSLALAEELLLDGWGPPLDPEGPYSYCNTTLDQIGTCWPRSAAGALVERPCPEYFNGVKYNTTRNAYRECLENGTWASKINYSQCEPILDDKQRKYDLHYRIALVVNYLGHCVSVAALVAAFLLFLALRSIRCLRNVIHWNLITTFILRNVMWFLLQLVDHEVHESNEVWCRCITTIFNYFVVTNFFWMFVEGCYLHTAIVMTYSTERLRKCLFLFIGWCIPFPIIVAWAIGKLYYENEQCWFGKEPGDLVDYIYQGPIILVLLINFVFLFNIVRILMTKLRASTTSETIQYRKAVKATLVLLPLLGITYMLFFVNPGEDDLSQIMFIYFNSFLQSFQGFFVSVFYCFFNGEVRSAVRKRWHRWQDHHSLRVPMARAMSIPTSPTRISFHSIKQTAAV
T4 sequence (P24387 whole entry): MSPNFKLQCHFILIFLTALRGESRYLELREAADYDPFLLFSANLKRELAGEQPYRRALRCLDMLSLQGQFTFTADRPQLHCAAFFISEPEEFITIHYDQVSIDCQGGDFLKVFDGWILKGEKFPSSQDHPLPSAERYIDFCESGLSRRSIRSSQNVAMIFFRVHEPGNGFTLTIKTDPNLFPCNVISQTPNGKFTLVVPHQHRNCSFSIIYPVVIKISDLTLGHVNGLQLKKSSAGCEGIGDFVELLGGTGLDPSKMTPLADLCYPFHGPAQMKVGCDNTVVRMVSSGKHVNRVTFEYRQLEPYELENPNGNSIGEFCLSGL

[14] = inhibitors of intracellular T. cruzi replication, confirmation, NIH3T3 host cells, beta-gal luminescence (AID 2044); format: functional, cell-based;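 note: intracellular parasites grown in NIH/3T3 mouse fibroblasts as host cells; luminescent beta-galactosidase reporter signal from transgenic T. cruzi replicating inside host cells; inhibitors lower the luminescence signal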
[15] = cytotoxicity toward NIH3T3 fibroblasts, dose response, counter-screen, cell-based, ATP luminescence, mouse fibroblasts (AID 2010); format: functional;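 note: cells exposed to compound for about 90 hours before reading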
[16] = Shn3 3'UTR reporter inhibitors, dose response, cell-based, Clone20 osteoblasts, firefly luciferase, cherry-picked (AID 624132); format: functional;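 note: firefly luciferase luminescence from reporter carrying the Shn3 3'UTR in osteoblasts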

With `CCN1C(=O)/C(=C/N(C)c2ccccc2)OC1=S` the IC50 [1] was 76.6 µM (inactive).

In the case of `Fc1ccc2c(c1)C1C=CCC1C(c1cc3c(cc1Br)OCO3)N2` (stereo not drawn), the EC50 [2] is reported as > 300 µM (not active), the EC50 [3] is reported as > 300 µM (not active) and the AC50 [4] is reported as 0.316 µM (inconclusive). For the same compound, the AC50 [5] was 1.78 µM (inconclusive).

In the case of `O=C(CCc1nc(O)c2ccccc2n1)Nc1ccc(F)c([N+](=O)[O-])c1`, the IC50 [6] is reported as > 79 µM (inactive).

For `Cc1ccc(-c2nnc(O)c3ccccc23)cc1S(=O)(=O)Nc1ccccc1`, the IC50 [6] was 21.3 µM (active).

In the case of `O=[N+]([O-])c1ccc(S(=O)(=O)Nc2nc3ccccc3nc2Nc2ccccc2)cc1`, the EC50 [7] is reported as > 150 µM (inactive) and the EC50 [8] is reported as 2.06 µM (active).

With `CN1CC=C2C(C#N)=C(N)C(C#N)(C#N)C(c3ccncc3)C2C1` (stereo not drawn) the EC50 [2] was 52.9 µM (inconclusive) and the EC50 [3] was 7.73 µM (active).

With `Nc1n[nH]c(Sc2ccc([N+](=O)[O-])cc2[N+](=O)[O-])n1` the EC50 [2] was 85.7 µM (active) and the EC50 [3] was 30.1 µM (active).

In the case of `Cc1onc(-c2ccccc2)c1C(=O)NN=C(N)COc1ccc(Cl)cc1`, the EC50 [7] is reported as > 150 µM (inactive) and the EC50 [8] is reported as > 38 µM (not active).

For `O=C(O)c1cnc(-c2ccccc2)nc1Sc1ccccc1Cl`, the EC50 [7] was > 160 µM (inactive) and the EC50 [8] was 0.356 µM (active).

For `COc1cccc2cc(-c3cc(=O)oc4ccc(OCC(C)=O)cc34)oc12`, the IC50 [6] was > 79 µM (inactive).

In the case of `CCCCn1c(N)c(Br)c(=O)[nH]c1=O`, the IC50 [6] is reported as > 79 µM (inactive).

In the case of `Cc1n[nH]c(N=Nc2ccc(O)cc2)n1`, the EC50 [2] is reported as > 300 µM (not active) and the EC50 [3] is reported as 4.83 µM (active).

In the case of `Cc1cccc(NC(S)=NNC(=O)c2csc(C(C)C)c2)c1`, the EC50 [7] is reported as > 150 µM (inactive), the CC50 [9] is reported as 27.1 µM (active) and the EC50 [10] is reported as 20.3 µM (active). For the same compound, the EC50 [11] was 36.9 µM (active).

For `Cc1c(Cl)cccc1Nc1c([N+](=O)[O-])nn(-c2ccccc2)[n+]1[O-]`, the IC50 [1] was > 100 µM (inactive).

In the case of `O=C(Nc1ccc(Br)c(Cl)c1)c1ccco1`, the IC50 [1] is reported as 14.2 µM (active).

In the case of `CCOC(=O)C1CCN(C(=O)CSCc2nc(-c3ccc(OCC)cc3)oc2C)CC1`, the CC50 [12] is reported as > 40 µM (active).

With `O=C(CCC(=O)N1CCN(C2CCCCC2)CC1)Nc1nnc(C(F)(F)F)s1` the IC50 [6] was > 79 µM (inactive).

For `Cc1nc(N2CCN(S(=O)(=O)c3cccc4nonc34)CC2)c2c3c(sc2n1)CCCC3`, the IC50 [6] was > 79 µM (inactive).

For `COc1ccccc1Nc1nc(N)nc(CCl)n1`, the CC50 [12] was 1.88 µM (active).

In the case of `N#C/C(=C/c1ccc(Sc2nc3ccccc3[nH]2)o1)c1cccc(Br)c1`, the CC50 [12] is reported as > 40 µM (active).

With `O=C(NN=C(S)Nc1cccc(C(F)(F)F)c1)c1ccc(Cl)cc1Cl` the EC50 [7] was > 160 µM (inactive), the EC50 [8] was 4.65 µM (active) and the EC50 [13] was > 53 µM (inactive).

With `CCCCc1ccc(/C=C2\C(=O)ON=C2c2ccccc2)s1` the EC50 [2] was 68 µM (active) and the EC50 [3] was 87.7 µM (active).

For `CCOC(=O)Cc1nc2ccccc2n(CC#N)c1=O`, the EC50 [2] was > 300 µM (not active) and the EC50 [3] was > 300 µM (not active).

In the case of `CCOC(=O)[C@]1(C#N)[C@@H]2C=CC(C(C)=O)=CN2[C@@H](C(N)=O)[C@@H]1c1ccsc1`, the EC50 [2] is reported as 2.5 µM (active) and the EC50 [3] is reported as 12.3 µM (active).

With `O=C(/C=C/c1cccs1)c1ccc(Br)cc1` the IC50 [1] was 73.8 µM (inactive).

For `Cc1ccc(NC(=O)CNC(=O)c2cccs2)cc1S(=O)(=O)Nc1ccc(Cl)cc1`, the IC50 [1] was > 100 µM (inactive).

With `CCCc1ccc(OCC(=O)Nc2cc(S(=O)(=O)CC)ccc2O)cc1` the EC50 [7] was > 160 µM (inactive) and the EC50 [8] was 1.45 µM (active).

For `c1ccc(-c2nc(-n3ccnc3)nc(-n3ccnc3)n2)cc1`, the IC50 [6] was > 79 µM (inactive).

In the case of `CC(=O)Nc1cc(C(F)(F)F)ccc1OCC1CCCO1` (stereo not drawn), the IC50 [1] is reported as > 100 µM (inactive).

For `CCSc1ccc2cc(OC)ccc2[n+]1CC`, the EC50 [7] was > 160 µM (inactive), the EC50 [8] was > 38 µM (not active) and the EC50 [14] was 6.53 µM (active). For the same compound, the EC50 [15] was > 60 µM (not active).

For `Cc1nc(N2CCN(Cc3ccccc3)CC2)c(C#N)c2c1COC(C)(C)C2`, the EC50 [2] was 94.5 µM (active) and the EC50 [3] was 108 µM (active).

For `NS(=O)(=O)c1ccc(N/C=C2/C(=O)N(c3nccs3)C(=O)c3ccccc32)cc1`, the IC50 [6] was > 79 µM (inactive).

For `O=C(NCc1ccc2c(c1)OCO2)c1nnc(O)c2ccccc12`, the IC50 [6] was > 79 µM (inactive).

In the case of `Fc1ccccc1-c1nc(-c2ccc(Cl)cc2)no1`, the IC50 [1] is reported as > 100 µM (inactive).

In the case of `CCOC(=O)C1CCN(c2cc3c(cc2NC(=O)c2ccc(F)cc2)n(C)c(=O)n3C)CC1`, the IC50 [6] is reported as 16.7 µM (active).

For `C/C(=N\NC(=O)c1nnn(-c2nonc2N)c1CSc1ccc(C)cc1)c1cccnc1`, the IC50 [6] was > 79 µM (inactive).

With `CCOc1ccc(NC(=O)CN(C)C(=O)Cc2nnc(O)c3ccccc23)cc1OCC` the IC50 [6] was > 79 µM (inactive).

With `O=C(OCC(=O)N1CCc2ccccc21)c1nnc(O)c2ccccc12` the IC50 [6] was 12.3 µM (active).

With `C[C@]12CC[C@H](O)CC1=CCC1C2CC[C@@]2(C)C1CCC21OCCO1` (stereo partly drawn) the AC50 [16] was 27.3 µM (active).

For `COc1ccc(OC)c(/C=c2\sc3nc(-c4cccs4)nn3c2=O)c1`, the EC50 [2] was > 300 µM (not active), the EC50 [3] was > 300 µM (inconclusive) and the EC50 [13] was 6.32 µM (active).

With `CCO/C(C)=N/n1c2nc3ccccc3nc2c2c(=O)n(C3CCCC3)c(C)nc21` the EC50 [2] was > 300 µM (not active) and the EC50 [3] was > 300 µM (not active).

For `O=c1cc(/C=C/c2ccccc2)oc2ccccc12`, the CC50 [12] was > 40 µM (active) and the IC50 [1] was 78.9 µM (inactive).
